Results as given in patent US12692223B2, “Phenyl-sulfamoyl-benzoic acid derivatives as ERAP1-modulators” (GREY WOLF THERAPEUTICS LIMITED, priority 2021, dated 2026).

biological target: T1, ERAP1 (Homo sapiens, UniProt Q9NZ08); test: ERAP1 mediated hydrolysis of an amide substrate measured in a biochemical system (10-mer inhibition assay); conditions: purified ERAP1(37-941)-10His; 10-mer substrate; 23° C. for 1 h; excitation 279 nm, emission 355 nm; read-out: IC50 vs Decapeptide WRVYEKC(Dnp)ALK-acid (where Dnp is Dinitrophenyl maleimide) (10-mer)
T1 construct: Purified ERAP1(37-941)-10His (ERAP1)
Protocol: Biological Assay 1: ERAP1 Mediated Hydrolysis of an Amide Substrate Measured in a Biochemical System
• 1× Assay buffer (AB): 25 mM Bis-tris propane, 0.05% w/v • Hydroxypropylmethylcellulose pH 7.75 made with Optima grade water • Decapeptide WRVYEKC(Dnp)ALK-acid (where Dnp is Dinitrophenyl maleimide) (10-mer) • L-Leucine 7-amido-4-methylcoumarin (L-AMC) • Purified ERAP1(37-941)-10His (ERAP1) Assay Procedure:
12.5 μL ERAP1 enzyme in 1×AB was combined with 250 nL test compound in DMSO. 12.5 μL of either 240 μM L-AMC in 1×AB or 100 μM 10-mer in 1×AB was added to the reaction and incubated at 23° C. for 1 h. For detection, plates were read at excitation 365 nm and emission 442 nm (L-AMC) or excitation 279 nm and emission 355 nm (10-mer). Compound IC50 was determined using a 4-parameter equation.

T1 sequence (Q9NZ08 37-941): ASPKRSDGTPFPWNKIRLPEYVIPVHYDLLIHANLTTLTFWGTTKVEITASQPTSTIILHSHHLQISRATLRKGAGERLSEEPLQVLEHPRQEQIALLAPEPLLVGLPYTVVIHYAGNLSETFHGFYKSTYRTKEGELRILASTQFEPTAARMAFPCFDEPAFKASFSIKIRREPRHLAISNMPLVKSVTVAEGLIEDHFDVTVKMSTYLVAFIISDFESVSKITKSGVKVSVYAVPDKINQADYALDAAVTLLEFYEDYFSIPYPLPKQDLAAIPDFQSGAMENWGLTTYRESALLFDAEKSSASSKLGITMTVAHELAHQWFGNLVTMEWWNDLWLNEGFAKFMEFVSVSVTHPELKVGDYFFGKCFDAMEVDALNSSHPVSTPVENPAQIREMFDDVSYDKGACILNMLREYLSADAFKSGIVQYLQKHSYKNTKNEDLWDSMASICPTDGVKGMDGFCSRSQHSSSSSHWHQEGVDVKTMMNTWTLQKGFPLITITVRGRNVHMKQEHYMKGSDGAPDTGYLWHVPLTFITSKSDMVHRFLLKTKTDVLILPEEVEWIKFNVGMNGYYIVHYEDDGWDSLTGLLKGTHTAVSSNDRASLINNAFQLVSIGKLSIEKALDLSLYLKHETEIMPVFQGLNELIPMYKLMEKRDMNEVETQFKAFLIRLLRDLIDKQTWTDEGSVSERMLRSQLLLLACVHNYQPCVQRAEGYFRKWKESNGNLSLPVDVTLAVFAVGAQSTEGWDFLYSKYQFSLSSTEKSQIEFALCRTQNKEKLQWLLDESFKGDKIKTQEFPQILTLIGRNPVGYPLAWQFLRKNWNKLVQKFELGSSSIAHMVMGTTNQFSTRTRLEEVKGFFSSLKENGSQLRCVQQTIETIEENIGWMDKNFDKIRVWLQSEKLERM

Structure (SMILES)	IC50 [nM]
N#Cc1cc(NS(=O)(=O)c2cc(C(=O)O)ccc2C2CC2)c(OC2COC2)cc1Cl [Example 66, 3-(N-(4-chloro-5-cyano-2-(oxetan-3-yloxy)phenyl)sulfamoyl)-4-cyclopropylbenzoic acid]	> 5
CC1CCC1Oc1cc(Cl)c(C#N)cc1NS(=O)(=O)c1cc(C(=O)O)ccc1C1CC1 (single isomer, unassigned) [Example 122, 3-(N-(4-chloro-5-cyano-2-(2-methylcyclobutoxy)phenyl)sulfamoyl)-4-cyclopropylbenzoic acid]	1 to 5
N#Cc1cc(NS(=O)(=O)c2cc(C(=O)O)ccc2C2CC2)c(OCC2CNC2)cc1Cl [Example 43, 3-(N-(2-(azetidin-3-ylmethoxy)-4-chloro-5-cyanophenyl)sulfamoyl)-4-cyclopropylbenzoic acid]	> 5
C#CC1CCCC1Oc1cc(Cl)c(C#N)cc1NS(=O)(=O)c1cc(C(=O)O)ccc1C1CC1 (single isomer, unassigned) [Example 116, 3-(N-(4-chloro-5-cyano-2-((trans-2-ethynylcyclopentyl)oxy)phenyl)sulfamoyl)-4-cyclopropylbenzoic acid]	> 5
COc1ccc(C(=O)O)cc1S(=O)(=O)Nc1cc(C(F)(F)F)ccc1OC1CCCC1 [Example 2, 3-(N-(2-(cyclopentyloxy)^−5-(trifluoromethyl)phenyl)sulfamoyl)-4-methoxybenzoic acid]	> 5
N#Cc1cc(NS(=O)(=O)c2cc(C(=O)O)ccc2C2CC2)c(OC2CCC2C2CC2)cc1Cl (single isomer, unassigned) [Example 132, 3-(N-(4-chloro-5-cyano-2-(2-cyclopropylcyclobutoxy)phenyl)sulfamoyl)-4-cyclopropylbenzoic acid]	1 to 5
CC1CC(Oc2cc(Cl)c(C#N)cc2NS(=O)(=O)c2cc(C(=O)O)ccc2C2CC2)C1 (single isomer, unassigned) [Example 114, 3-(N-(4-chloro-5-cyano-2-(3-methylcyclobutoxy)phenyl)sulfamoyl)-4-cyclopropylbenzoic acid]	< 1
N#Cc1cc(NS(=O)(=O)c2cc(C(=O)O)ccc2C2CC2)c(OC2CCC2O)cc1Cl (single isomer, unassigned) [Example 128, 3-(N-(4-chloro-5-cyano-2-(trans-2-hydroxycyclobutoxy)phenyl)sulfamoyl)-4-cyclopropylbenzoic acid]	< 1
Cc1cc(C#N)cc(NS(=O)(=O)c2cc(C(=O)O)ccc2C2CC2)c1OC1CCCC1 [Example 15, 3-(N-(5-cyano-2-(cyclopentyloxy)−3-methylphenyl)sulfamoyl)-4-cyclopropylbenzoic acid]	> 5
COC1CCC1Oc1cc(Cl)c(C#N)cc1NS(=O)(=O)c1cc(C(=O)O)ccc1C1CC1 (single isomer, unassigned) [Example 138, 3-(N-(4-chloro-5-cyano-2-(trans-2-methoxycyclobutoxy)phenyl)sulfamoyl)-4-cyclopropylbenzoic acid]	< 1
CO[C@@H]1CCC[C@@H]1Oc1cc(Cl)c(C#N)cc1NS(=O)(=O)c1cc(C(=O)O)ccc1C1CC1 (single isomer, unassigned) [Example 143, 3-(N-(4-chloro-5-cyano-2-((cis-2-methoxycyclopentyl)oxy)phenyl)sulfa-moyl)-4-cyclopropylbenzoic acid]	1 to 5
CC1CC(Oc2cc(Cl)c(C#N)cc2NS(=O)(=O)c2cc(C(=O)O)ccc2C2CC2)C1 (mixture of isomers) [Example 88, 3-(N-(4-chloro-5-cyano-2-(3-methylcyclobutoxy)phenyl)sulfamoyl)-4-cyclopropylbenzoic acid]	< 1
N#Cc1cc(NS(=O)(=O)c2cc(C(=O)O)ccc2C2CC2)c(OC2CCC2O)cc1Cl (racemic) [Example 113, 3-(N-(4-chloro-5-cyano-2-(cis-2-hydroxycyclobutoxy)phenyl)sulfamoyl)-4-cyclopropylbenzoic acid]	< 1
CN1CC(COc2cc(Cl)c(C#N)cc2NS(=O)(=O)c2cc(C(=O)O)ccc2C2CC2)C1 [Example 38, 3-(N-(4-chloro-5-cyano-2-((1-methylazetidin-3-yl)methoxy)phenyl)sulfamoyl)-4-cyclopropylbenzoic acid]	> 5
N#Cc1cc(NS(=O)(=O)c2cc(C(=O)O)ccc2C2CC2)c(OC2CCC2C2CC2)cc1Cl (single isomer, unassigned) [Example 131, 3-(N-(4-chloro-5-cyano-2-(2-cyclopropylcyclobutoxy)phenyl)sulfamoyl)-4-cyclopropylbenzoic acid]	< 1

Further lines, results first:

IC50 [nM]	Structure (SMILES)
< 1	N#Cc1cc(NS(=O)(=O)c2cc(C(=O)O)ccc2C2CC2)c(OC2CCC(C#N)C2)cc1Cl (racemic) [Example 74, 3-(N-(4-chloro-5-cyano-2-((cis-3-cyanocyclopentyl)oxy)phenyl)sulfamoyl)-4-cyclopropylbenzoic acid]
< 1	N#Cc1cc(NS(=O)(=O)c2cc(C(=O)O)ccc2C2CC2)c(OC2CCCC2)cc1Cl [Example 1, 3-(N-(4-chloro-5-cyano-2-(cyclopentyloxy)phenyl)sulfamoyl)-4-cyclopropylbenzoic acid]
< 1	N#Cc1cc(NS(=O)(=O)c2cc(C(=O)O)ccc2C2CC2)c(O[C@@H]2CCOC2)cc1Cl [Example 48, (R)-3-(N-(4-chloro-5-cyano-2-((tetrahydrofuran-3-yl)oxy)phenyl)sulfamoyl)-4-cyclopropylbenzoic acid]
< 1	CC1CCCC1Oc1cc(Cl)c(C#N)cc1NS(=O)(=O)c1cc(C(=O)O)ccc1C1CC1 (single isomer, unassigned) [Example 100, 3-(N-(4-chloro-5-cyano-2-((trans-2-methylcyclopentyl)oxy)-phenyl)sulfamoyl)-4-cyclopropylbenzoic acid]
< 1	O=C(O)c1ccc(C2CC2)c(S(=O)(=O)Nc2cc(-n3cnnn3)c(F)cc2OC2CCCC2)c1 [Example 9, 3-(N-(2-(cyclopentyloxy)-4-fluoro-5-(1H-tetrazol-1-yl)phenyl)sulfamoyl)-4-cyclopropylbenzoic acid]
1 to 5	CO[C@H]1C[C@H](COc2cc(Cl)c(C#N)cc2NS(=O)(=O)c2cc(C(=O)O)ccc2C2CC2)C1 [Example 46, 3-(N-(4-chloro-5-cyano-2-((trans-3-methoxycyclobutyl)methoxy)phenyl)sulfamoyl)-4-cyclopropylbenzoic acid]
< 1	COC1CCCC1Oc1cc(Cl)c(C#N)cc1NS(=O)(=O)c1cc(C(=O)O)ccc1C1CC1 (single isomer, unassigned) [Example 103, 3-(N-(4-chloro-5-cyano-2-((trans-2-methoxycyclopentyl)-oxy)phenyl)sulfamoyl)-4-cyclopropylbenzoic acid]
< 1	N#Cc1cc(NS(=O)(=O)c2cc(C(=O)O)cc(F)c2C2CC2)c(OC2CCCC2)cc1Cl [Example 18, 3-(N-(4-chloro-5-cyano-2-(cyclopentyloxy)phenyl)sulfamoyl)-4-cyclopropyl-5-fluorobenzoic acid]
< 1	N#Cc1cc(NS(=O)(=O)c2cc(C(=O)O)ccc2C2CC2)c(OC2CCC23CC3)cc1Cl (single isomer, unassigned) [Example 107, 3-(N-(4-chloro-5-cyano-2-(spiro[2.3]hexan-4-yloxy)phenyl)-sulfamoyl)-4-cyclopropylbenzoic acid]
< 1	O=C(O)c1ccc(C2CC2)c(S(=O)(=O)Nc2cc(-n3cnnn3)ccc2OC2CCCC2)c1 [Example 8, 3-(N-(2-(cyclopentyloxy)-5-(1H-tetrazol-1-yl)phenyl)sulfamoyl)-4-cyclopropylbenzoic acid]
1 to 5	CC(Oc1cc(Cl)c(C#N)cc1NS(=O)(=O)c1cc(C(=O)O)ccc1C1CC1)C1COC1 (centres unmarked) [Example 45, 3-(N-(4-chloro-5-cyano-2-(1-(oxetan-3-yl)ethoxy)phenyl)sulfamoyl)-4-cyclopropylbenzoic acid]
1 to 5	N#Cc1ccc(OC2CCCC2)c(NS(=O)(=O)c2cc(C(=O)O)ccc2C2CC2)c1 [Example 6, 3-(N-(5-cyano-2-(cyclopentyloxy)phenyl)sulfamoyl)-4-cyclopropylbenzoic acid]
< 1	CC1(Oc2cc(Cl)c(C#N)cc2NS(=O)(=O)c2cc(C(=O)O)ccc2C2CC2)CCCC1 [Example 81, 3-(N-(4-chloro-5-cyano-2-((1-methylcyclopentyl)oxy)phenyl)sulfamoyl)-4-cyclopropylbenzoic acid]
< 1	Cc1oncc1-c1ccc(OC2CCCC2)c(NS(=O)(=O)c2cc(C(=O)O)ccc2C2CC2)c1 [Example 23, 3-(N-(2-(cyclopentyloxy)-5-(5-methylisoxazol-4-yl)phenyl)sulfamoyl)-4-cyclopropylbenzoic acid]
< 1	N#Cc1cc(NS(=O)(=O)c2cc(C(=O)O)ccc2C2CC2)c(OCC2(C#N)CCC2)cc1Cl [Example 82, 3-(N-(4-chloro-5-cyano-2-((1-cyanocyclobutyl)methoxy)phenyl)sulfamoyl)-4-cyclopropylbenzoic acid]
< 1	N#Cc1cc(NS(=O)(=O)c2cc(C(=O)O)ccc2C2CC2)c(OC2CCC23CCC3)cc1Cl (single isomer, unassigned) [Example 92, 3-(N-(4-chloro-5-cyano-2-(spiro[3.3]heptan-1-yloxy)phenyl)sulfamoyl)-4-cyclopropylbenzoic acid]
< 1	C#CC1CCCC1Oc1cc(Cl)c(C#N)cc1NS(=O)(=O)c1cc(C(=O)O)ccc1C1CC1 (racemic) [Example 84, 3-(N-(4-chloro-5-cyano-2-((trans-2-ethynylcyclopentyl)oxy)phenyl)sulfamoyl)-4-cyclopropylbenzoic acid]
